Columns and labels:
[1] = molecular target: human CB1 receptor (hCB1) (Homo sapiens, UniProt P21554); assay: cell-based; format: cell-based; conditions: for +/− HCB1: agonist or inverse agonist at hCB1
Procedure, shortened: (§1)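 Readout: LANCE TR-FRET cAMP, back-calculated from a concurrent standard curve and scaled between forskolin-only and forskolin + 1 μM CP55,940 wells. EC50 and intrinsic activity came from four-parameter fits.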

rat CB2 receptor (rCB2) = molecular target: T1, rat CB2 receptor (rCB2) (Rattus norvegicus, UniProt Q9QZN9); assay: cell-based; format: cell-based; conditions: for +/− RCB2: agonist or inverse agonist at rCB2
T1 sequence (Q9QZN9 1-360): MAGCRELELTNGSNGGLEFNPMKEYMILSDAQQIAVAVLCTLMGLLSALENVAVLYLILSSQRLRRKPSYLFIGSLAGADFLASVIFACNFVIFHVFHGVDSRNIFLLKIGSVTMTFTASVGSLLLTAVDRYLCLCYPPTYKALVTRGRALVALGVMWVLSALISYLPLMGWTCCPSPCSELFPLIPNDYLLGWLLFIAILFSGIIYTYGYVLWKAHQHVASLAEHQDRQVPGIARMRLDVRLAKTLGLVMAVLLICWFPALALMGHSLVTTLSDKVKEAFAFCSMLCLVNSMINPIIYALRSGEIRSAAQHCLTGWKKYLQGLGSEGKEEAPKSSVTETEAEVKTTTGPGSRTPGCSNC
Procedure, shortened: as §1

rats = assay: Spinal nerve ligation (SNL) model of neuropathic pain; format: in vivo; conditions: rat, oral 3, 10 and 30 mg/kg, FIG. 4
Experimental: The SNL model (Kim and Chung 1992) was used to induce chronic neuropathic pain in rats. The rats were anesthetized with isoflurane, the left L5 transverse process was removed, and the L5 and L6 spinal nerves were tightly ligated with 6-0 silk suture. The wound was then closed with internal sutures and external staples. Following at least seven days post SNL, baseline, post-injury and post-treatment values for non-noxious mechanical sensitivity were evaluated using eight Semmes-Weinstein filaments (Stoelting, Wood Dale, Ill., USA) with varying stiffness (0.4, 0.7, 1.2, 2.0, 3.6, 5.5, 8.5, and 15 g) according to the up-down method (Chaplan et al. 1994). Animals were placed on a perforated metallic platform and allowed to acclimate to their surroundings for a minimum of thirty minutes before testing. The mean and standard error of the mean (SEM) were determined for the injured paw in each treatment group. Since this stimulus is normally not considered painful, significant injury-induced increases in responsiveness in this test are interpreted as a measure of mechanical allodynia. The dose which elicited 50% attenuation of mechanical hypersensitivity (ED50) was determined using linear regression analysis. Results obtained after oral administration of compound 317 at 3, 10 and 30 mg/kg and with compound 366 at 1, 3 and 10 mg/kg are shown in FIG. 4.

Male Sprague-Dawley rats = assay: Complete Freund's Adjuvant (CFA) model of inflammatory pain, Randall-Selitto paw pressure; format: in vivo; conditions: rat, intraperitoneal
Experimental: Male Sprague-Dawley rats (Hsd:Sprague-Dawley®™SD®™, Harlan, Indianapolis, Ind.) weighing 201±1 grams, were housed three per cage. Animals had free access to food and water and were maintained on a twelve hour light/dark schedule for the entire duration of the experiment. Approximately 12 hours prior to behavioral testing, animals were placed on wire mesh bottom cages with free access to water but no access to food. Test compounds were prepared in 50% PEG-400 (Sigma-Aldrich, cat. P3265). Indomethacin (Fluka, cat 57413) was suspended in 0.5% methylcellulose (Sigma-Aldrich, cat. 274429). Groups of eight animals were anesthetized with 2-3% isoflurane and local inflammation induced by 50 μl CFA (Sigma-Aldrich, cat F5881, Mycobacterium tuberculosis 1 mg/ml) injected subcutaneously into the plantar surface of the left paw.
Assessment of mechanical hyperalgesia: Baseline and post-treatment withdrawal thresholds to a noxious mechanical stimulus were measured using the Randall-Selitto paw pressure apparatus (Ugo Basile Analgesymeter, model 7200). […] Mechanical hyperalgesia was measured using the Randall-Selitto paw pressure device before CFA injection and after intraperitoneal (i.p.) compound administration over a twenty-four-hour period. The mean and standard error of the mean (SEM) were determined for the injured and normal paws for each treatment group.

human CB1 receptor (hCB1), sequence (P21554 whole entry): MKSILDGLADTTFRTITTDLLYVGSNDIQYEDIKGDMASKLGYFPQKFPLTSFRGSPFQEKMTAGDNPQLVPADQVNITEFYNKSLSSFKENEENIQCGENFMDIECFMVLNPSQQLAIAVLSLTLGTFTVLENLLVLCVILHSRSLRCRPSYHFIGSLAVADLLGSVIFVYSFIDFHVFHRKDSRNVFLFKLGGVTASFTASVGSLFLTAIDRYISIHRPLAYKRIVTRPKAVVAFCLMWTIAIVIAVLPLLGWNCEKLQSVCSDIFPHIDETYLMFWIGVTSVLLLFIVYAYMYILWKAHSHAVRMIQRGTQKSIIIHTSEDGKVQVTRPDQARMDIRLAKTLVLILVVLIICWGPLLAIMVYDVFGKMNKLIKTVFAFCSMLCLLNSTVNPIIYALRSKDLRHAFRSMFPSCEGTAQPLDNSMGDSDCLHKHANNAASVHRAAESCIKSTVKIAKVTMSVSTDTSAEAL

Structure (SMILES) | EC50 [1] [µM] | +/− RCB2 (rat CB2 receptor (rCB2)) | effect in the neuropathic pain model (rats) | +/− HCB1 [1] | side effects during the experiment (Male Sprague-Dawley rats) | EC50 (rat CB2 receptor (rCB2)) [µM]
CNC(=O)[C@@H](NC(=O)c1nc(-c2ccccc2)n2c1CN(C)CCC2)C(C)(C)C [Compound 317, (S)-N-(3,3-dimethyl-1-(methylamino)-1-oxobutan-2-yl)-8-methyl-3-phenyl-6,7,8,9-tetrahydro-5H-imidazo[1,5-a][1,4]diazepine-1-carboxamide] | > 10 | + | dose response in the neuropathic pain model |  |  | 
CNC(=O)[C@@H](NC(=O)c1nc(-c2ccc(Cl)cc2F)n2c1CN(C)CCC2)C(C)(C)C [Compound 366, (S)-3-(4-chloro-2-fluorophenyl)-N-(3,3-dimethyl-1-(methylamino)-1-oxobutan-2-yl)-8-methyl-6,7,8,9-tetrahydro-5H-imidazo[1,5-a][1,4]diazepine-1-carboxamide] |  | + | dose response in the neuropathic pain model | + |  | 
CCS(=O)(=O)N1CCn2c(-c3ccccc3)nc(C(=O)N[C@H](C(=O)NC)C(C)(C)C)c2C1 [Compound 91, (S)-N-(3,3-dimethyl-1-(methylamino)-1-oxobutan-2-yl)-7-(ethylsulfonyl)-3-phenyl-5,6,7,8-tetrahydroimidazo[1,5-a]pyrazine-1-carboxamide] | > 10 | − |  |  | No side effects were observed | 
CNC(=O)[C@@H](NC(=O)c1nc(-c2ccccc2)n2c1CN(C1CC1)CCC2)C(C)(C)C [Compound 199, (S)-8-cyclopropyl-N-(3,3-dimethyl-1-(methylamino)-1-oxobutan-2-yl)-3-phenyl-6,7,8,9-tetrahydro-5H-imidazo[1,5-a][1,4]diazepine-1-carboxamide] | > 10 | + |  |  |  | 
C[C@@H](NC(=O)c1nc(-c2ccccc2)n2c1CN(C(=O)C1CCOC1)CC2)C1CCCCC1 (stereo partly drawn) [Compound 139, N-((R)-1-cyclohexylethyl)-3-phenyl-7-(tetrahydrofuran-3-carbonyl)-5,6,7,8-tetrahydroimidazo[1,5-a]pyrazine-1-carboxamide] | > 10 | − |  |  |  | 
CNC(=O)[C@@H](NC(=O)c1nc(-c2cccc(S(=O)(=O)N3CCCC3)c2)n2c1CN(C)CCC2)C(C)(C)C [Compound 385, (S)-N-(3,3-dimethyl-1-(methylamino)-1-oxobutan-2-yl)-8-methyl-3-(3-(pyrrolidin-1-ylsulfonyl)phenyl)-6,7,8,9-tetrahydro-5H-imidazo[1,5-a][1,4]diazepine-1-carboxamide] | > 10 |  |  |  |  | > 10
C=Cc1nc(C(=O)N[C@H](C(=O)NC)C(C)(C)C)c2n1CCN(C)C2 [Compound 266, (S)-N-(3,3-dimethyl-1-(methylamino)-1-oxobutan-2-yl)-7-methyl-3-vinyl-5,6,7,8-tetrahydroimidazo[1,5-a]pyrazine-1-carboxamide] | > 10 | − |  |  |  | 
CN1CCn2c(-c3ccccc3)nc(C(=O)N[C@H](c3nc(C(C)(C)C)no3)C(C)(C)C)c2C1 [Compound 283, (S)-N-(1-(3-tert-butyl-1,2,4-oxadiazol-5-yl)-2,2-dimethylpropyl)-7-methyl-3-phenyl-5,6,7,8-tetrahydroimidazo[1,5-a]pyrazine-1-carboxamide] | > 10 | − |  |  |  | 
CNC(=O)[C@@H](NC(=O)c1nc(-c2cccc(S(C)(=O)=O)c2)n2c1CN(C)CCC2)C(C)(C)C [Compound 409] | > 10 | − |  |  |  | 
C=C(C)c1nc(C(=O)N[C@H](C(=O)NC)C(C)(C)C)c2n1CCCN(C)C2 [Compound 441, (S)-N-(3,3-dimethyl-1-(methylamino)-1-oxobutan-2-yl)-8-methyl-3-(prop-1-en-2-yl)-6,7,8,9-tetrahydro-5H-imidazo[1,5-a][1,4]diazepine-1-carboxamide] |  | + |  | + |  | 
CNC(=O)[C@@H](NC(=O)c1nc(-c2ccc(C)cc2)n2c1CN(C)CCC2)C(C)(C)C [Compound 332, (S)-N-(3,3-dimethyl-1-(methylamino)-1-oxobutan-2-yl)-8-methyl-3-p-tolyl-6,7,8,9-tetrahydro-5H-imidazo[1,5-a][1,4]diazepine-1-carboxamide] | > 10 |  |  |  |  | > 10
COC(=O)[C@@H](NC(=O)c1nc(-c2ccc(C)cc2F)n2c1CN(CC1CC1)CCC2)C(C)(C)C [Compound 470, (S)-methyl 2-(8-(cyclopropylmethyl)-3-(2-fluoro-4-methylphenyl)-6,7,8,9-tetrahydro-5H-imidazo[1,5-a][1,4]diazepine-1-carboxamido)-3,3-dimethylbutanoate] | > 10 | − |  |  |  | 
CNC(=O)[C@@H](NC(=O)c1nc(-c2cc(F)cc(OC)c2)n2c1CN(C)CCC2)C(C)(C)C [Compound 384, (S)-N-(3,3-dimethyl-1-(methylamino)-1-oxobutan-2-yl)-3-(3-fluoro-5-methoxyphenyl)-8-methyl-6,7,8,9-tetrahydro-5H-imidazo[1,5-a][1,4]diazepine-1-carboxamide] | > 10 | − |  |  |  | 
CNC(=O)[C@H](CC(C)C)NC(=O)c1nc(-c2ccc(F)c(Cl)c2)n2c1CN(C)CCC2 [Compound 537, (S)-3-(3-chloro-4-fluorophenyl)-8-methyl-N-(4-methyl-1-(methylamino)-1-oxopentan-2-yl)-6,7,8,9-tetrahydro-5H-imidazo[1,5-a][1,4]diazepine-1-carboxamide] | > 10 | + |  |  |  | 
CN1CCCn2c(-c3cc(Cl)ccc3F)nc(C(=O)N[C@H](C(=O)N(C)C)C(C)(C)C)c2C1 [Compound 559, (S)-3-(5-chloro-2-fluorophenyl)-N-(1-(dimethylamino)-3,3-dimethyl-1-oxobutan-2-yl)-8-methyl-6,7,8,9-tetrahydro-5H-imidazo[1,5-a][1,4]diazepine-1-carboxamide] |  |  |  | + |  | > 10
CC(C)CN1CCn2c(-c3ccccc3)nc(C(=O)NCC3CCOCC3)c2C1 [Compound 167, 7-isobutyl-3-phenyl-N-((tetrahydro-2H-pyran-4-yl)methyl)-5,6,7,8-tetrahydroimidazo[1,5-a]pyrazine-1-carboxamide] | > 10 | − |  |  |  | 
CNC(=O)[C@@H](NC(=O)c1nc(-c2ccc(C(=O)N(C)C)cc2)n2c1CN(C)CCC2)C(C)(C)C [Compound 394, (S)-N-(3,3-dimethyl-1-(methylamino)-1-oxobutan-2-yl)-3-(4-(dimethylcarbamoyl)phenyl)-8-methyl-6,7,8,9-tetrahydro-5H-imidazo[1,5-a][1,4]diazepine-1-carboxamide] | > 10 | − |  |  |  | 

Source: patent publication US7517874B2 (priority 2007, dated 2009)
